Results reported in patent US20140348901A1, “COMBINATORIAL METHODS AND COMPOSITIONS FOR TREATMENT OF MELANOMA” (The Penn State Research Foundation, priority 2004, published 2014).

Columns and labels:
C8161 cells [1] = experiment: pMek and pErk levels in C8161 cells with BAY 43-9006; type: cell-based, human
1205 Lu cells = experiment: Pretreatment of mice with BAY 43-9006, 1205 Lu tumor development; type: in vivo, nude mice; conditions: 50 mg/kg i.p., 1205 Lu (not shown)
Procedure: (§1) Effect of BAY 43-9006 on tumor development was measured by subcutaneously injecting 5×10^6 UACC 903 or 1×10^6 1205 Lu cells into nude mice. After 6 days when a small tumor (50-100 mm^3) had developed, the mice received an intra peritoneal injection on alternate days consisting of 50 μl of vehicle (DMSO), or the drug BAY 43-9006 at concentrations of 10, 50 or 100 mg/kg body weight for UACC 903 cells and 50 mg/kg body weight for 1205 Lu cells. For studies involving pretreatment with BAY 43-9006, 50 mg/kg body weight of drug was intra peritoneally injected twice (−4 and −2 days) prior to subcutaneous injection of UACC 903 or 1205 Lu cells. The mechanism by which pharmacological inhibition of mutant ^V599EB-Raf delays tumor development was identified by comparing tumors of the same size developing in parallel. This was achieved by subcutaneous injection of 5×10^6 UACC 903 cells followed at day 6 by intra peritoneal injection every 2 days with 50 mg/kg of BAY 43-9006. For temporal and spatial matching of control DMSO with drug treated tumors, either 1×10^6, 2.5×10^6 or 5×10^6 million UACC 903 cells were subcutaneously injected and from day 6 treated intra peritoneally with DMSO vehicle every 2 days. Drug or vehicle treated tumors of the same size developing in parallel were harvested at days 9, 11, 13 and 15 for comparison. […]

VEGF = VEGF secretion ELISA, UACC 903 or 1205 Lu cells; type: cell-based, human; conditions: BAY 43-9006 5, 10, 15 uM; UACC 903 and 1205 Lu
Procedure: To determine the amount of VEGF secreted by cells following siRNA-mediated knockdown of B-Raf protein or after treatment with BAY 43-9006, the human VEGF Quantikine kit (DVE00) was used (R&D Systems Inc., Minneapolis, Minn.). UACC 903 or 1205 Lu cells (5×10^5) nucleofected with the various siRNA were plated in 60 mm petri dishes and 24 hours later media replaced with DMEM containing 2% FBS. Following an additional 24 hours, media was again replaced and conditioned media for ELISA analysis was collected 24 and 48 hours later. For BAY 43-9006 studies. 3×10^5 UACC 903 or 1205 Lu cells were plated into 60 mm petri dishes and 24 hours later media was changed to DMEM containing 2% FBS. After an additional 24 hours, media was replaced with DMEM supplemented with 2% FBS alone or in combination with BAY 43-9006 (5, 10, 15 uM) or DMSO vehicle. After 12 or 24 hours, conditioned media was collected for ELISA analysis. The media was cleared by centrifugation at 14,000 rpm (4° C.) for 5 minutes and stored at −80° C. VEGF ELISA analysis was performed in triplicate on duplicate experiments according to the manufacturer's instructions.

[2] = tested on: mutant ^V599EB-Raf protein signaling; experiment: pMek and pErk Western blot in UACC 903 cells with increasing BAY 43-9006; type: cell-based, human
UACC 903 tumors [3] = experiment: BAY 43-9006 on preexisting UACC 903 tumors in nude mice; type: in vivo
Procedure: (§2) Effect of BAY 43-9006 on tumor development was measured by subcutaneously injecting 5×10^6 UACC 903 or 1×10^6 1205 Lu cells into nude mice. After 6 days when a small tumor (50-100 mm^3) had developed, the mice received an intra peritoneal injection on alternate days consisting of 50 μl of vehicle (DMSO), or the drug BAY 43-9006 at concentrations of 10, 50 or 100 mg/kg body weight for UACC 903 cells and 50 mg/kg body weight for 1205 Lu cells. For studies involving pretreatment with BAY 43-9006, 50 mg/kg body weight of drug was intra peritoneally injected twice (−4 and −2 days) prior to subcutaneous injection of UACC 903 or 1205 Lu cells. The mechanism by which pharmacological inhibition of mutant ^V599EB-Raf delays tumor development was identified by comparing tumors of the same size developing in parallel. This was achieved by subcutaneous injection of 5×10^6 UACC 903 cells followed at day 6 by intra peritoneal injection every 2 days with 50 mg/kg of BAY 43-9006. For temporal and spatial matching of control DMSO with drug treated tumors, either 1×10^6, 2.5×10^6 or 5×10^6 […] UACC 903 cells were subcutaneously injected and from day 6 treated intra peritoneally with DMSO vehicle every 2 days. Drug or vehicle treated tumors of the same size developing in parallel were harvested at days 9, 11, 13 and 15 for comparison. At each time point, tumors from mice treated with vehicle or drug were harvested for analysis of cell proliferation, apoptosis and vascular development, as described previously (Stahl J M et al. Cancer Res. 64: 7002-10 (2004), Stahl J M et al. Cancer Res. 63: 2881-90 (2003)).
(§3) It is currently unknown whether targeting mutant ^V599EB-Raf in established preexisting melanoma tumors could retard tumor development, and if so, whether the mechanism is the same as that occurring when targeting ^V599EB-Raf in cells prior to tumor formation. Therefore, we next examined whether pharmacologically targeting B-Raf in preexisting melanoma tumors would inhibit tumor development by a similar mechanism. Five million UACC 903 cells, one million 1205 Lu cells or five million C8161 cells were subcutaneously injected into 4- to 6-week old female nude mice. On day 6, vehicle (DMSO) or BAY 43-9006 compound dissolved in vehicle (10, 50 or 100 mg/kg) was administered to mice via intra peritoneal injection every 48 hours. A 48 hour time period between drug administrations was chosen since inhibitory effects on the MAP kinase signaling pathway in UACC 903, 1205 Lu and C8161 cells persisted for at least that period (data not shown). Size of the developing tumors was measured using calipers on alternate days and the results are shown for UACC 903 cells in FIG. 4A and 1205 Lu cells in FIG. 15B. While all concentrations of the BAY 43-9006 compound slowed UACC 903 tumor development, only concentrations ≧50 mg/kg caused tumor development to plateau 7 days following the start of treatment (FIG. 4B).

[4] = tested on: wild type or mutant ^V599EB-Raf protein; experiment: pMek and pErk in HEK 293T cells expressing HA-tagged wild type or mutant B-Raf exposed to BAY 43-9006; type: cell-based, human; conditions: 5 uM, 2 hours
Procedure: The BAY 43-9006 compound used for these studies was synthesized as described in ref (Bankston D et al. Organic Process Res Dev. 6: 777-81 (2002)). To evaluate the inhibitory effects of BAY 43-9006 on wild type and mutant B-Raf, HEK 293T cells were transfected with HA-tagged wild type B-RAF, mutant ^V599EB-RAF or vector (pcDNA3) using Calcium Phosphate as described previously (Robertson G P et al. Proc Natl Acad Sci USA. 95: 9418-23 (1998)). Following transfection (72 hours) media was replaced with DMEM media supplemented with 10% FBS and 5 uM BAY 43-9006 or DMSO vehicle. Two hours later, protein lysates were collected for Western blot analysis. Levels of phosphorylated Mek and Erk were quantified from 3 independent blots and fold differences under different conditions were estimated after normalizing against an Erk 2 loading control.

C8161 cells [5] = experiment: BAY 43-9006 on preexisting C8161 tumors in nude mice; type: in vivo; conditions: C8161 (data not shown)
Excerpt: as §3

advanced stage melanoma = conditions: cited from earlier work
UACC 903 tumors [6] = experiment: Apoptosis, cell proliferation and vessel density in size- and time-matched UACC 903 tumors treated with BAY 43-9006; type: in vivo, nude mice
Procedure: as §2
Apoptosis measurements on formalin-fixed, paraffin-embedded tumor sections were undertaken using the TUNEL TMR Red Apoptosis kit from Roche (Manheim, Germany), as described previously (Stahl J M et al. Cancer Res. 64: 7002-10 (2004), Stahl J M et al. Cancer Res. 63: 2881-90 (2003)). Cell Proliferation rates in formalin-fixed tumor sections were measured using the RPN 20 cell proliferation kit (Amersham Biosciences, Piscataway, N.J.) that utilizes BrdU incorporation and immunocytochemistry. […] The number of BrdU stained cells were scored as the percentage of total cells of tumors treated with BAY 43-9006 or vehicle (DMSO). Quantification of vessels density using a purified rat anti-mouse CD31 (PECAM-1) monoclonal antibody (Pharmingen, San Diego, Calif.) has been described previously (Stahl J M et al. Cancer Res. 64: 7002-10 (2004), Stahl J M et al. Cancer Res. 63: 2881-90 (2003)). The proportional area of the tumors occupied by the vessels over the total area was calculated using the IP Lab imaging software program. For all tumor analyses, a minimum of 6 different tumors with 4-6 fields per tumor was analyzed and results represented as the average±SEM.

phosphorylated Erk = experiment: In vivo pErk measurements in UACC 903 tumor sections (immunohistochemistry); design: species or system nude mice; conditions: 50 mg/kg, 9 days after start of treatment
Procedure: To quantitate changes in pErk levels in formalin-fixed, paraffin-embedded tumor sections, antigen retrieval was performed with 0.01 M citrate buffer at pH 6.0 for 20 minutes in a 95° C. water bath. Slides were cooled for 20 minutes, rinsed in PBS and then incubated in 3% H2O2 for 10 minutes to quench endogenous peroxidase activity. Next, sections were blocked with 1% BSA for 30 minutes and incubated with anti-pERK antibody at a 1:100 dilution (Cell Signaling Technologies, Beverly, Mass.) overnight at 4° C. Following rinsing in PBS, sections were incubated with biotinylated anti rabbit IgG for 1 hour, rinsed again in PBS, and incubated with peroxidase labeled streptavidine for 30 minutes. […] The average percentage of cells±SEM that stained positive for pErk was counted from a minimum of 6 different tumors with 4-6 fields counted per tumor.
To confirm that the BAY 43-9006 compound affected activity of the mutant ^V599EB-Raf signaling pathway in tumors, the percentage of cells expressing elevated levels of phosphorylated Erk was scored in tumors from mice 9 days after start of treatment with vehicle (DMSO) or vehicle containing 50 mg/kg BAY 43-9006 (FIG. 15C).

UACC 903 cells [7] = experiment: Pretreatment of mice with BAY 43-9006, UACC 903 tumor development; type: in vivo, nude mice; conditions: 50 mg/kg i.p.
Procedure: as §1

UACC 903 cells [8] = experiment: BAY 43-9006 growth inhibition/IC-50 of UACC 903 melanoma cells (SRB); type: cell-based, human; conditions: 72 hours; read-out: IC-50, concentration that reduced UACC 903 cell survival by half
Procedure: To measure the growth inhibitory effects or IC-50 of BAY 43-9006 on UACC 903 cells, 5×10^3 cells/well were plated into 96-well plates. Following 24 hours, varying concentrations of BAY 43-9006 (0, 0.02, 0.1, 0.4, 1.6, 6.3, 25, or 100 uM) was added to duplicate 8-strip wells in the plate. After 72 hours of growth at 37° C. in a 5% CO2 humidified atmosphere, media was discarded and cells were fixed in 10% trichloroacetic acid. Surviving cells at each concentrations of the drug were calculated using the SRB binding assay (Stahl J M et al. Cancer Res. 63: 2881-90 (2003)).

1205 Lu tumors = experiment: BAY 43-9006 on preexisting 1205 Lu tumors in nude mice; type: in vivo; conditions: 50 mg/kg
Procedure: as §1, with “43-9006.” for “43-9006. For temporal and spatial matching of control DMSO with drug treated tumors, either 1×10^6, 2.5×10^6 or 5×10^6 million UACC 903 cells were subcutaneously injected and from day 6 treated intra peritoneally with DMSO vehicle every 2 days. Drug or vehicle treated tumors of the same size developing in parallel were harvested at days 9, 11, 13 and 15 for comparison.”
It is currently unknown whether targeting mutant ^V599EB-Raf in established preexisting melanoma tumors could retard tumor development, and if so, whether the mechanism is the same as that occurring when targeting ^V599EB-Raf in cells prior to tumor formation. […] Size of the developing tumors was measured using calipers on alternate days and the results are shown for UACC 903 cells in FIG. 4A and 1205 Lu cells in FIG. 15B. […]

CNC(=O)c1cc(Oc2ccc(NC(=O)Nc3ccc(Cl)c(C(F)(F)F)c3)cc2)ccn1 [BAY 43-9006]
pMek and pErk levels (C8161 cells [1]): inhibited
Tumor development after pretreatment (1205 Lu cells): significantly inhibited
VEGF secretion (VEGF): dose dependent manner
Persistence of inhibitory effects on MAP kinase signaling ([2]; UACC 903 and 1205 Lu cell lines): 2 to 3 days
Levels of phosphorylated (active) Mek and Erk ([2]; UACC 903 cells, 2 hours, increasing concentrations): dose responsive manner
Tumor size on day 27 (UACC 903 tumors [3]; 10 mg/kg): > 2,400 mm^3
Delay of tumor development (UACC 903 tumors [3]; 10 mg/kg i.p. every 48 hours): ~1 week
Increase in tumor sizes from days 13-to-31 (UACC 903 tumors [3]; UACC 903, after a week of drug treatment): no statistically significant increase
Tumor development plateau, days following the start of treatment (UACC 903 tumors [3]; concentrations ≧50 mg/kg): 7 days
Concentrations that reduce the tumorigenic potential of melanoma cells containing mutant ^V599EB-Raf (UACC 903 tumors [3]; i.p. every 2 days from day 6): ≥ 50 mg/kg
Fold reduction of phosphorylated Erk [4]: 3-4 fold
Fold reduction of phosphorylated Mek [4]: 5-6 fold
Kinetics of tumor formation (C8161 cells [5]): no difference
Efficacy of monotherapy (advanced stage melanoma; advanced stage melanoma patients, oral): relatively ineffective
Response rate in patients (advanced stage melanoma; in combination with paclitaxel and carboplatinum): 50%
Tumor area occupied by apoptosis by day 15 (UACC 903 tumors [6]; 50 mg/kg): up to 25%
Vessel development at day 9 vs vehicle (UACC 903 tumors [6]; 50 mg/kg): statistically significant difference
Tumor area undergoing apoptosis by day 20 (UACC 903 tumors [6]; 50 mg/kg (data not shown)): ~50%
Decrease in percentage of proliferating cells (UACC 903 tumors [6]; preexisting tumors, 50 mg/kg): 32-57%
Fold fewer pErk positive cells than vehicle treated tumors (phosphorylated Erk): ~3 fold
Tumor development after pretreatment (UACC 903 cells [7]): significantly inhibited
IC50 (UACC 903 cells [8]): 5 to 6 µM
Plateau in tumor size, days (1205 Lu tumors): 17-to-31 days
